Assay results published in paper PMC7824209, “Bioactive Bis(indole) Alkaloids from a Spongosorites sp. Sponge” (Marine Drugs, 2020).
pIC50: −log10 of the molar value. Values after ≈ are worked out from the molar mass of the structure shown. Like-named read-outs stand apart in the source and are kept apart here.

Key:
[1] = molecular target: T1, recombinant SrtA from S. aureus ATCC6538p (Staphylococcus aureus, UniProt Q2FV99); assay: SrtA inhibition assay (fluorescence, dabcyl-LPETG-edans cleavage); assay type: biochemical
T1 construct: made in house; host or cells: Escherichia coli
T1 sequence (Q2FV99 whole entry): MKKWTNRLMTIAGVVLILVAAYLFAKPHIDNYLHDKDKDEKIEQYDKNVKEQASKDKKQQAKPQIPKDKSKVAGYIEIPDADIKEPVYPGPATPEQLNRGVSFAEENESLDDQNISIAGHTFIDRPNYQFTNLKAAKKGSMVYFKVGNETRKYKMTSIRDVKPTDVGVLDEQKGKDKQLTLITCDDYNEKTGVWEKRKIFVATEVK
From the text: The same bioassays were pursued with the new compounds and the known congeners, with a particular emphasis on SrtA inhibition. The rationale of SrtA inhibition is that this transpeptidase decorates the surfaces of Gram-positive bacteria with a diverse array of proteins that enable microbes to effectively interact with their environment, and it is not required for bacterial growth or viability. It is thus considered a promising target for the development of anti-virulence drugs aimed at interfering with important virulence mechanisms such as adhesion to host tissues. To assess the SrtA inhibitory activity of compounds 1–14, recombinant SrtA derived from S. aureus ATCC6538p was purified from Escherichia coli extracts using metal chelate-affinity chromatography. The enzyme activity was determined from the fluorescence intensity upon cleavage of a peptide substrate containing the LPETG motif.
Before evaluating the SrtA inhibitory activity of the test compounds, recombinant SrtA from S. aureus ATCC6538p was prepared according to methods described in a previous paper. The SrtA inhibitory activity of the test compounds was determined according to previously described methods with minor modifications. The reaction was carried out with 100 μL buffer (50 mM Tris-HCl, 5 mM CaCl2, and 150 mM NaCl, pH 7.5), 7.5 µM synthetic peptide dabcyl-LPETG-edans (AnaSpec, Inc., Fremont, CA, USA), 7.5 µM purified SrtA, and test samples at various concentrations. […] The SrtA inhibition assay was conducted at 37 °C for 1 h, and inhibition was quantified fluorometrically using a microplate reader (FLx800, BioTek Instruments, Winooski, VT, USA) at excitation and emission wavelengths of 350 and 495 nm, respectively. Berberine chloride and triphasiol were used as reference inhibitors of SrtA.

[2] = test system: Enterococcus faecium ATCC19434; assay: Antibacterial activity MIC; assay type: cell-based; conditions: ATCC19434, read-out: Antibacterial Activity MIC, Enterococcus faecium
A549 cell line = assay: MTT cytotoxicity assay; assay type: cell-based; conditions: Homo sapiens
Description: (§1) An MTT assay was performed as previously described to determine the cytotoxicity against A549 and K562 cell lines. These cancer cell lines were purchased from the Korean Cell Line Bank (KCLB), Seoul, Republic of Korea.

K562 cell line = assay: MTT cytotoxicity assay; assay type: cell-based; conditions: Homo sapiens
Description: as §1

[3] = test system: Salmonella enterica ATCC14028; assay: Antibacterial activity MIC; assay type: cell-based; conditions: ATCC14028, read-out: Antibacterial Activity MIC, Salmonella enterica
[4] = test system: Trichophyton rubrum NBRC9185; assay: Antifungal activity MIC; assay type: cell-based
[5] = test system: Trichophyton mentagrophytes IFM40996; assay: Antifungal activity MIC; assay type: cell-based
[6] = test system: Enterococcus faecalis ATCC19433; assay: Antibacterial activity MIC; assay type: cell-based; conditions: ATCC19433, read-out: Antibacterial Activity MIC, Enterococcus faecalis
[7] = test system: Aspergillus fumigatus HIC6094; assay: Antifungal activity MIC; assay type: cell-based
[8] = test system: Escherichia coli ATCC25922; assay: Antibacterial activity MIC; assay type: cell-based; conditions: Gram-negative; for MIC: Escherichia coli, read-out: Antibacterial Activity MIC, E. coli
[9] = test system: Klebsiella pneumoniae ATCC10031; assay: Antibacterial activity MIC; assay type: cell-based; conditions: ATCC10031, read-out: Antibacterial Activity MIC, Klebsiella pneumonia
S. aureus strain Newman = assay: Antibacterial activity MIC; assay type: cell-based; conditions: Staphylococcus aureus, read-out: Antibacterial Activity MIC, S. aureus
[10] = test system: Candida albicans ATCC10231; assay: Antifungal activity MIC; assay type: cell-based
[11] = MTT assay, A549, read-out: IC50 A549
[12] = MTT assay, K562, read-out: IC50 K562

SMILES	pIC50 [1]	MIC ([2]; Gram-positive)	pIC50 (A549 cell line; [11])	pIC50 (K562 cell line; [12])	MIC ([3]; Gram-negative)	MIC [4]	MIC [5]	MIC ([6]; Gram-positive)	MIC [7]	MIC [8]	MIC ([9]; Gram-negative)	MIC (S. aureus strain Newman; Gram-positive, strain Newman)	MIC [10]	other results
O=C(c1ncc(-c2c[nH]c3ccccc23)[nH]1)c1c[nH]c2cc(Br)ccc12 [Compound 8, isobromodeoxytopsentin]	4.38													
O=C(NCC(=O)c1c[nH]c2cc(Br)ccc12)NC(=O)c1c[nH]c2cc(O)ccc12 [Compound 6, spongocarbamide B]	4.28	> 128 µg/mL	< 4.00	< 4.00	128 µg/mL (≈ 281 µM)	> 128 µg/mL	> 128 µg/mL	> 128 µg/mL	> 128 µg/mL	> 128 µg/mL	> 128 µg/mL	64 µg/mL (≈ 141 µM)	> 128 µg/mL	
CC1(C)S[C@@H]2[C@H](NC(=O)[C@H](N)c3ccccc3)C(=O)N2[C@H]1C(=O)O [ampicillin, reference compound]		1 µg/mL (≈ 2.86 µM)			0.25 µg/mL (≈ 0.715 µM)			0.5 µg/mL (≈ 1.43 µM)		8 µg/mL (≈ 22.9 µM)		0.13 µg/mL (≈ 0.372 µM)		
COc1ccc2cc3[n+](cc2c1OC)CCc1cc2c(cc1-3)OCO2 [berberine chloride, reference compound]	4.06													
O=C(c1nc(-c2c[nH]c3ccccc23)c[nH]1)c1c[nH]c2cc(O)ccc12 [Compound 7, topsentin]	< 3.43	64 µg/mL (≈ 187 µM)	4.60	4.82	64 µg/mL (≈ 187 µM)	> 128 µg/mL	> 128 µg/mL	64 µg/mL (≈ 187 µM)	> 128 µg/mL	> 128 µg/mL	64 µg/mL (≈ 187 µM)	32 µg/mL (≈ 93.5 µM)	> 128 µg/mL	Antibacterial Activity MIC, E. coli [8]: >128 µg/mL
COc1cccc2c1C(=O)c1c(O)c3c(c(O)c1C2=O)C[C@@](O)(C(=O)CO)C[C@@H]3O[C@H]1C[C@H](N)[C@H](O)[C@H](C)O1 [doxorubicin, reference compound]			6.19	6.04										
O=C1NC[C@H](c2c[nH]c3cc(Br)ccc23)N[C@H]1c1c[nH]c2cc(Br)ccc12 [Compound 12, (3S, 5R)-6-dibromo-trans-3,4-dihydrohamacanthin B]	< 3.58					> 128 µg/mL	> 128 µg/mL		> 128 µg/mL	> 128 µg/mL			> 128 µg/mL	MIC [2]: > 128 µg/mL; pIC50 (A549 cell line; A549, read-out: IC50 A549): 4.46; pIC50 (K562 cell line; K562, read-out: IC50 K562): 5.01; MIC [3]: 8 µg/mL (≈ 16.4 µM); MIC [6]: 16 µg/mL (≈ 32.8 µM); Antibacterial Activity MIC, E. coli [8]: >128 µg/mL; MIC [9]: 8 µg/mL (≈ 16.4 µM); MIC (S. aureus strain Newman; NEWMAN): 8 µg/mL (≈ 16.4 µM)
O=C(NCC(=O)c1c[nH]c2ccccc12)NC(=O)c1c[nH]c2cc(O)ccc12 [Compound 5, spongocarbamide A]	4.10	> 128 µg/mL	< 4.00	4.03	> 128 µg/mL	> 128 µg/mL	> 128 µg/mL	> 128 µg/mL	> 128 µg/mL	> 128 µg/mL	> 128 µg/mL	> 128 µg/mL	> 128 µg/mL	
CN(C)[C@@H]1C(O)=C(C(N)=O)C(=O)[C@@]2(O)C(O)=C3C(=O)c4c(O)cccc4[C@@](C)(O)[C@H]3C[C@@H]12 [tetracycline, reference compound]											0.25 µg/mL (≈ 0.563 µM)			
O=C(c1ncc(-c2c[nH]c3cc(Br)ccc23)[nH]1)c1c[nH]c2ccccc12 [Compound 9, bromodeoxytopsentin]	4.47													
CO[C@@]1(C(=O)c2c[nH]c3ccccc23)N=C(c2c[nH]c3ccccc23)C(=O)N1 [Compound 2, spongosoritin B]	4.20	> 128 µg/mL	4.25	4.55	128 µg/mL (≈ 344 µM)	> 128 µg/mL	> 128 µg/mL	> 128 µg/mL	> 128 µg/mL	> 128 µg/mL	128 µg/mL (≈ 344 µM)	64 µg/mL (≈ 172 µM)	> 128 µg/mL	
O=C(c1nc(-c2c[nH]c3cc(Br)ccc23)c[nH]1)c1c[nH]c2cc(O)ccc12 [Compound 10, bromotopsentin]	4.27	16 µg/mL (≈ 38 µM)	4.41	4.36	16 µg/mL (≈ 38 µM)	> 128 µg/mL	> 128 µg/mL	32 µg/mL (≈ 76 µM)	> 128 µg/mL	> 128 µg/mL	64 µg/mL (≈ 152 µM)	8 µg/mL (≈ 19 µM)	> 128 µg/mL	Antibacterial Activity MIC, E. coli [8]: >128 µg/mL
CO[C@@]1(C(=O)c2c[nH]c3cc(O)ccc23)N=C(c2c[nH]c3cc(Br)ccc23)C(=O)N1 [Compound 4, spongosoritin D]	< 3.56	128 µg/mL (≈ 274 µM)	4.15	4.27	64 µg/mL (≈ 137 µM)	> 128 µg/mL	> 128 µg/mL	128 µg/mL (≈ 274 µM)	> 128 µg/mL	> 128 µg/mL	> 128 µg/mL	16 µg/mL (≈ 34.2 µM)	> 128 µg/mL	
CC(C)C(=O)Cc1c(OCC(O)C(C)(C)O)ccc2ccc(=O)oc12 (stereo not shown) [triphasiol, reference compound]														pIC50 ([1]; 7.5 µM SrtA, 7.5 µM dabcyl-LPETG-edans, 37 °C, 1 h, pH 7.5, read-out: IC50 Srt A): 4.42
COC(=O)c1c[nH]c2cc(O)ccc12 [Compound 14, 6-hydroxy-3-carbomethoxyindole]	3.72	> 128 µg/mL	4.18	< 4.00	> 128 µg/mL	> 128 µg/mL	> 128 µg/mL	> 128 µg/mL	> 128 µg/mL	> 128 µg/mL	> 128 µg/mL	128 µg/mL (≈ 670 µM)	> 128 µg/mL	
CO[C@@]1(C(=O)c2c[nH]c3cc(O)ccc23)N=C(c2c[nH]c3ccccc23)C(=O)N1 [Compound 1, spongosoritin A]	< 3.48	> 128 µg/mL	4.11	4.62	> 128 µg/mL	> 128 µg/mL	> 128 µg/mL	> 128 µg/mL	> 128 µg/mL	> 128 µg/mL	> 128 µg/mL	> 128 µg/mL	> 128 µg/mL	
CO[C@@]1(C(=O)c2c[nH]c3ccccc23)N=C(c2c[nH]c3cc(Br)ccc23)C(=O)N1 [Compound 3, spongosoritin C]	4.36	> 128 µg/mL	4.21	4.42	64 µg/mL (≈ 142 µM)	> 128 µg/mL	> 128 µg/mL	128 µg/mL (≈ 284 µM)	> 128 µg/mL	> 128 µg/mL	> 128 µg/mL	32 µg/mL (≈ 70.9 µM)	> 128 µg/mL	
O=C1NC(c2c[nH]c3cc(Br)ccc23)CN=C1c1c[nH]c2ccccc12 (stereo in doubt) [Compound 11, (R)-6′′-debromohamacanthin A]	4.32	32 µg/mL (≈ 78.6 µM)	4.40	< 4.00	16 µg/mL (≈ 39.3 µM)	> 128 µg/mL	> 128 µg/mL	32 µg/mL (≈ 78.6 µM)	> 128 µg/mL	> 128 µg/mL	8 µg/mL (≈ 19.6 µM)	8 µg/mL (≈ 19.6 µM)	> 128 µg/mL	Antibacterial Activity MIC, E. coli [8]: >128 µg/mL
COC(=O)c1c[nH]c2ccccc12 [Compound 13, 3-carbomethoxyindole]	3.78	> 128 µg/mL	4.23	< 4.00	> 128 µg/mL	> 128 µg/mL	> 128 µg/mL	> 128 µg/mL	> 128 µg/mL	> 128 µg/mL	> 128 µg/mL	128 µg/mL (≈ 731 µM)	> 128 µg/mL	
